Patent publication US8575158B2, “1-phenyl-substituted heterocyclyl derivatives and their use as prostaglandin D2 receptor modulators” (Actelion Pharmaceuticals Ltd., priority 2010, dated 2013)

Biological target: T1, hCRTH2 receptor (Homo sapiens, UniProt Q9Y5Y4)
T1 construct: expressed in transfected cells; host or cells: HEK293
T1 sequence (Q9Y5Y4 1-395): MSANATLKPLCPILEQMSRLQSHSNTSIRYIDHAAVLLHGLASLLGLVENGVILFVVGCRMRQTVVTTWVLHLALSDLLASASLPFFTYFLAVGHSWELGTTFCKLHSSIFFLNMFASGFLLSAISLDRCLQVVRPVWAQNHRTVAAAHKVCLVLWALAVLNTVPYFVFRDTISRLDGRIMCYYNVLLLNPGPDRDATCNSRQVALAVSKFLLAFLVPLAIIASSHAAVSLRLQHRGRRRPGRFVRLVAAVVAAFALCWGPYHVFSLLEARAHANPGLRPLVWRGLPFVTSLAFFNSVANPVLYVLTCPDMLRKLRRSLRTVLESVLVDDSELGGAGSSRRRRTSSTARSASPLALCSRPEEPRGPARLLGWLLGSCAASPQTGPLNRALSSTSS
Experiment: Radioligand displacement assay (3H-PGD2) on hCRTH2 receptor membranes
Type: binding
Conditions: antagonistic activity
Experimental: First, recombinant HEK293-hCRTH2 cells were detached from culture plates into 5 ml buffer A/plate (Buffer A: 5 mM Tris, 1 mM MgCl2-6H2O pH=7.4) using a rubber policeman. Cells were then transferred into centrifugation tubes and centrifuged for 5 min at 400 g. The cell pellet was resuspended in the same buffer and tubes were frozen at −80° C. Cells were thawed and membrane fragments were generated by homogenization using a polytron homogenizer (30 seconds). The membrane fragments were then centrifuged at 3000 g for 20 minutes and resuspended in buffer C (Buffer C: 75 mM Tris, 25 mM MgCl2, 250 mM Saccharose pH 7.4). Aliquots of membrane fragments were stored at −20° C.
Binding assay was performed in a final assay volume of 250 μl. First, 25 μl of test compound, previously diluted in Binding-Buffer (Binding-Buffer: 50 mM Tris-Base, 100 mM NaCl, 1 mM EDTA, 0.1% BSA (protease free), 0.01% NaN3, 10 mM MnCl2, pH 7.0) was placed into each well. After addition of 75 μl Binding-Buffer, 50 μl of the radioligand ^3H-PGD2 (at 2.5 nM (220.000 dpm/well) from ANAWA ART0662) was added to each well. Binding assay was started by addition of 100 μl CRTH2 membrane fragments, reaching a final concentration of 20 μg/well. For non-specific binding, PGD2 was added to the reaction mixture to […] final concentration.
This assay mix was incubated for 90 minutes at room temperature and then filtered through a GF/C filter 96-well plate which was pre-soaked for 3 hours in 0.5% polyethyleneimine (PEI). The filter-wells were washed three times with ice cold Binding-Buffer. Then, 40 μl of Microscint-40 (Packard) was added to each well and the retained radioactivity quantified in a Topcount (Packard).

[1] = 3H-PGD2 displacement on HEK293-hCRTH2 membrane fragments
[2] = 3H-PGD2 radioligand displacement, HEK293-hCRTH2 membranes

Compound | IC50 [1] [nM] | IC50 [2] [nM]
COc1ccc2c(c1)C(c1cc(F)ccc1OCC(=O)O)N(C(=O)OCc1ccccc1)CC2 (racemic) [Example 37, (±)-1-(2-Carboxymethoxy-5-fluoro-phenyl)-7-methoxy-3,4-dihydro-1H-isoquinoline-2-carboxylic acid benzyl ester] | 19.9 | –
O=C(O)COc1ccc(Cl)cc1C1c2ccccc2CCN1C(=O)COc1cccnc1F (racemic) [Example 482] | – | 199
Cn1nccc1COC(=O)N1CCc2cc(F)ccc2[C@H]1c1cc(Cl)ccc1OCC(=O)O [Example 337, (S)-1-(2-Carboxymethoxy-5-chloro-phenyl)-6-fluoro-3,4-dihydro-1H-isoquinoline-2-carboxylic acid 2-methyl-2H-pyrazol-3-ylmethyl ester] | – | 3.61
O=C(O)COc1ccc(Cl)cc1C1c2ccccc2CN1C(=O)NCc1ccccc1F (racemic) [Example 552] | – | 19.6
Cn1nc(COC(=O)N2CCc3ccccc3[C@H]2c2cc(Cl)ccc2OCC(=O)O)c2ccccc21 [Example 296, (S)-1-(2-Carboxymethoxy-5-chloro-phenyl)-3,4-dihydro-1H-isoquinoline-2-carboxylic acid 1-methyl-1H-indazol-3-ylmethyl ester] | – | 1.72
CS(=O)(=O)c1ccc(CCC(=O)N2CCc3ccccc3C2c2cc(F)ccc2OCC(=O)O)cc1 (racemic) [Example 145, (±)-(4-Fluoro-2-{2-[3-(4-methanesulfonyl-phenyl)-propionyl]-1,2,3,4-tetrahydro-isoquinolin-1-yl}-phenoxy)-acetic acid] | 983 | –
O=C(O)COc1ccc(Cl)cc1C1c2ccccc2CCN1C(=O)COc1ccc(Cl)nc1 (racemic) [Example 472] | – | 109
C[C@H](Oc1ccc(F)cc1[C@@H]1c2ccccc2CCN1C(=O)OCc1ccccc1)C(=O)O [Example 28, (S)-1-[2-((S)-1-Carboxy-ethoxy)-5-fluoro-phenyl]-3,4-dihydro-1H-isoquinoline-2-carboxylic acid benzyl ester] | 443 | –
COc1ccc2c(ccn2CCC(=O)N2CCc3ccccc3C2c2cc(Cl)ccc2OCC(=O)O)c1 (racemic) [Example 459] | – | 160
COc1ccc2c(c1)c(CCC(=O)N1CCc3ccccc3C1c1cc(Cl)ccc1OCC(=O)O)cn2C (racemic) [Example 458] | – | 47.5
O=C(O)COc1ccc(Cl)cc1C1c2ccccc2CCN1C(=O)CC1CC1 (racemic) [Example 68, (±)-{4-Chloro-2-[2-(2-cyclopropyl-acetyl)-1,2,3,4-tetrahydro-isoquinolin-1-yl]-phenoxy}-acetic acid] | 508 | –
O=C(O)COc1ccc(Cl)cc1C1c2ccccc2CN1C(=O)CCn1ncc2ccc(F)cc21 (single isomer, unassigned) [Example 546, (4-Chloro-2-{2-[3-(6-fluoro-indazol-1-yl)-propionyl]-2,3-dihydro-1H-isoindol-1-yl}-phenoxy)-acetic acid] | – | 210
O=C(O)COc1ccc(F)cc1C1c2ccccc2CCN1C(=O)CCc1ccccc1F (racemic) [Example 139, (±)-(4-Fluoro-2-{2-[3-(2-fluoro-phenyl)-propionyl]-1,2,3,4-tetrahydro-isoquinolin-1-yl}-phenoxy)-acetic acid] | 233 | –
Cc1ncc(COC(=O)N2CCc3cc(F)ccc3[C@H]2c2cc(Cl)ccc2OCC(=O)O)s1 [Example 328, (S)-1-(2-Carboxymethoxy-5-chloro-phenyl)-6-fluoro-3,4-dihydro-1H-isoquinoline-2-carboxylic acid 2-methyl-thiazol-5-ylmethyl ester] | – | 3.2
O=C(O)COc1ccc(Cl)cc1C1c2ccccc2CN1C(=O)NCc1ccccc1Cl (racemic) [Example 557] | – | 13.7
O=C(O)COc1ccc(F)cc1C1c2ccccc2CCN1C(=O)Cc1cccc2ccccc12 (racemic) [Example 47, (±)-{4-Fluoro-2-[2-(2-naphthalen-1-yl-acetyl)-1,2,3,4-tetrahydro-isoquinolin-1-yl]-phenoxy}-acetic acid] | 198 | –

Compound | IC50 [1] [nM] | IC50 [2] [nM]
O=C(O)COc1ccc(Cl)cc1C1c2ccccc2CCN1C(=O)C1=Cc2ccccc2OC1 (racemic) [Example 69, (±)-{4-Chloro-2-[2-(2H-chromene-3-carbonyl)-1,2,3,4-tetrahydro-isoquinolin-1-yl]-phenoxy}-acetic acid] | 377 | –
CC(C)(C)OC(=O)N1CCc2ccccc2[C@H]1c1cc(Cl)ccc1OCC(=O)O [Example 228] | 71.3 | –
N#Cc1ccc2c(ccn2CCC(=O)N2CCc3ccccc3C2c2cc(Cl)ccc2OCC(=O)O)c1 (racemic) [Example 371] | – | 53.1
N#Cc1cccc(COC(=O)N2CCc3ccccc3C2c2cc(Cl)ccc2OCC(=O)O)c1 (racemic) [Example 257] | 5.72 | –
O=C(O)COc1ccc(Cl)cc1C1c2ccccc2CCN1C(=O)OCC1CC1 (racemic) [Example 268] | 27.7 | –
O=C(O)COc1ccc(F)cc1C1c2ccccc2CCN1C(=O)CCOc1ccccc1 (racemic) [Example 144, (±)-{4-Fluoro-2-[2-(3-phenoxy-propionyl)-1,2,3,4-tetrahydro-isoquinolin-1-yl]-phenoxy}-acetic acid] | 73.9 | –
O=C(O)COc1ccc(Cl)cc1C1c2ccccc2CCN1C(=O)COc1ccc(Cl)cc1 (racemic) [Example 412] | – | 40.2
O=C(O)COc1ccc(Cl)cc1[C@@H]1c2cccc(F)c2CCN1C(=O)OCc1ccccc1 [Example 31, (S)-1-(2-Carboxymethoxy-5-chloro-phenyl)-5-fluoro-3,4-dihydro-1H-isoquinoline-2-carboxylic acid benzyl ester] | 1.41 | –
O=C(O)COc1ccc(Cl)cc1C1c2cccc(F)c2CCN1C(=O)[C@@H]1C[C@H]1c1ccccc1 (relative stereo) [Example 117, {4-Chloro-2-[5-fluoro-2-(trans-2-phenyl-cyclopropanecarbonyl)-1,2,3,4-tetrahydro-isoquinolin-1-yl]-phenoxy}-acetic acid] | 32.5 | –
COc1ccc(OCC(=O)N2CCc3ccccc3C2c2cc(Cl)ccc2OCC(=O)O)c(OC)n1 (racemic) [Example 476] | – | 164
O=C(O)COc1ccc(Cl)cc1[C@@H]1c2ccccc2CCN1C(=O)OCc1ccncn1 [Example 283, (S)-1-(2-Carboxymethoxy-5-chloro-phenyl)-3,4-dihydro-1H-isoquinoline-2-carboxylic acid pyrimidin-4-ylmethyl ester] | 7.56 | –
C[C@@H](Oc1ccc(F)cc1C1c2ccccc2CCN1C(=O)OCc1ccccc1)C(=O)O (stereo partly drawn) [Example 8, 1-[2-((R)-1-Carboxy-ethoxy)-5-fluoro-phenyl]-3,4-dihydro-1H-isoquinoline-2-carboxylic acid benzyl ester] | 39.5 | –
COc1ccccc1[C@@H]1C[C@H]1C(=O)N1CCc2ccccc2C1c1cc(Cl)ccc1OCC(=O)O (mixture of isomers) [Example 159] | 21.2 | –
O=C(O)COc1ccc(Cl)cc1C1c2ccccc2CCN1C(=O)COc1ccccc1-c1ccccc1 (racemic) [Example 86, (±)-(2-{2-[2-(Biphenyl-2-yloxy)-acetyl]-1,2,3,4-tetrahydro-isoquinolin-1-yl}-4-chloro-phenoxy)-acetic acid] | 422 | –
Cc1ccc(OCC(=O)N2CCc3ccccc3C2c2cc(Cl)ccc2OCC(=O)O)c(C)c1 (racemic) [Example 456] | – | 43.6
